Data from patent publication US20260085034A1, “N-(BENZHYDRYL)CYCLOALKYLCARBOXAMIDE DERIVATIVES AS INHIBITORS OF GLYCOGEN SYNTHASE 1 (GYS1) AND METHODS OF USE THEREOF” (Maze Therapeutics, Inc., priority 2022, published 2026).

Legend:
[1] = molecular target: T1, recombinant hGYS1/GN1 protein (Homo sapiens, UniProt P13807); assay: GYS1 coupled enzyme assay (PK/LDH); assay type: biochemical; details: geometric mean of at least 2 assay runs; NADH absorbance at 340 nm
T1 sequence (P13807 1-737): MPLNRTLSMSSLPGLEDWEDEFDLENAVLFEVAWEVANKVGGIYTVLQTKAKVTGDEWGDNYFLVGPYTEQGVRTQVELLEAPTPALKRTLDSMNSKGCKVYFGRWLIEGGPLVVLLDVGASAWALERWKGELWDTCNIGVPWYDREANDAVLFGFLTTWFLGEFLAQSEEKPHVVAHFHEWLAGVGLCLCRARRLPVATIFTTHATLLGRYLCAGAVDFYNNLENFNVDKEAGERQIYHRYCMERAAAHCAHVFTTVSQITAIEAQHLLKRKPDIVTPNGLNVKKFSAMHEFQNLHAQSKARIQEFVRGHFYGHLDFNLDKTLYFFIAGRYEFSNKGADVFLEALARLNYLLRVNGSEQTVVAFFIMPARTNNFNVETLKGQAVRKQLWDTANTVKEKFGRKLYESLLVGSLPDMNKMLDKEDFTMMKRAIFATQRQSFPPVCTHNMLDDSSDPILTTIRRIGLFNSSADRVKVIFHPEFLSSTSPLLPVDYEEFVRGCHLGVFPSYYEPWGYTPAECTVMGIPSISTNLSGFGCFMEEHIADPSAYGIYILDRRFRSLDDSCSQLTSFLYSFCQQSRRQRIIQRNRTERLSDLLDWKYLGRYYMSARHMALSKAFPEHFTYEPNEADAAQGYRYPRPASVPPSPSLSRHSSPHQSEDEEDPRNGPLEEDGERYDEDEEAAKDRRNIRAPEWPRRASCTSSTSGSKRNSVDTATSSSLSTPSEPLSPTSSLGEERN
T1 sequence (P46976 1-350 partner): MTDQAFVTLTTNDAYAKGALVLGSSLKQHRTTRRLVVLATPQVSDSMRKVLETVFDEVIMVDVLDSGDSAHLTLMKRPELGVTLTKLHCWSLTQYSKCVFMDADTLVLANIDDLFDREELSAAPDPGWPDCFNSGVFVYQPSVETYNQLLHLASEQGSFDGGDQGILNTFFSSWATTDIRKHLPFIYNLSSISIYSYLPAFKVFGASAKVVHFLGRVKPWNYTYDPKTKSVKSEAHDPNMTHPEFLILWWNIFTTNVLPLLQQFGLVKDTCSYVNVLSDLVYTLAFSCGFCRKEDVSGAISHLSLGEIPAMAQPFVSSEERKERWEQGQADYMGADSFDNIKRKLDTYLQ
Procedure, shortened: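 Recombinant hGYS1/GN1 (50 nM) with 0.8 mM UDP-glucose, 0.2% glycogen and 1 mM glucose-6-phosphate in Tris pH 7.5, 2.5% DMSO. UDP formation coupled via PK/LDH to NADH oxidation, read at 340 nm over 10 min. Control-normalized slopes fit to Hill equation; IC50 as geometric mean of ≥2 runs.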

[2] = test system: glycogen synthesis in HeLa cells (hGYS1); assay: GYS1 cell based assay (glycogen digestion, Glucose-glo); details: Homo sapiens, 24 h incubation, 20 mM glucose, geometric mean of at least 2 runs, read-out: Cellular IC50
Description: The GYS1 cell based assay is a bioluminescent assay that quantifies the glucose resulting from glycogen digestion; the quantified glucose is an indirect measure of GYS1 glycogen synthesis. Newly synthesized glycogen is digested using Glucoamylase; the resulting glucose is quantified by using the Glucose-glo assay kit from Promega. Glucose-glo works by coupling glucose oxidation and NADH production with a bioluminescent system that is activated with NADH. Glucose is oxidized by Glucose dehydrogenase and the reaction reduces NAD+ to NADH; NADH activates Reductase which reduces a pro-luciferin Reductase Substrate to luciferin. Luciferin is detected in a luciferase reaction using Ultra-Glo rLuciferase and ATP, and the luminesce produced is proportional to the glucose in the sample. The luminescence is measured as a single point read in a plate reader.
Compounds that inhibit the hGYS1 enzyme and, subsequently, the glycogen synthesis in cells, were tested using assay ready plates (white, clear bottom 384 well plates) in a final DMSO reaction volume of 1% DMSO. Compounds in the assay ready plates were mixed with media with no additives, except for 20 mM glucose prior to cell addition. HeLa cells were starved in media with no additives, except for 1× Glutamax for 24 h. Starved HeLa cells were plated, in a 1:1 ratio to the media in the assay ready plate and incubated for 24 h at 37° C. and 5% CO2. Cells were washed in 1×PBS buffer and lysed in lysis buffer containing 50% 1×PBS and 25% 0.3 N HCl of the final volume in the well or reaction volume; cells were incubated with lysis buffer for 10 minutes and quenched with the remaining 25% of the reaction volume that consisted of 450 mM Tris pH 8.0. Lysates were mixed in a 1:1 ratio with Glucoamylase in 100 mM Sodium Acetate buffer, pH 5.3; the mixture was incubated for 1 h at 37° C. The digested lysate was mixed in a 1:1 ratio with Glucose-glo detection mixture as per vendor recommendations (Luciferase detection buffer, Reductase, Reductase substrate, Glucose dehydrogenase, and NAD) in read-out plates (solid white 384-well plates) and incubated for 1 h at RT. The plates were read using a plate reader with luminescence capabilities. Each compound concentration Relative Luminescence Unit (RLU) was averaged and normalized to the average RLU of the positive and negative controls to obtain a percentage inhibition. The normalized data vs. concentration was plotted; to determine the half-maximal concentration (IC50), the Levenberg-Marquardt algorithm was used to fit a Hill equation to the dose response data.
The results are shown in Table 4 below, which reports the IC50 of each compound. Unless otherwise specified, IC50 values are reported as the geometric mean of at least 2 assay runs on separate days. As shown in the table below, the compounds of the present invention are potent inhibitors of human GYS1. […] Each run represents the average of a technical replicate, where each compound was assayed twice in the same plate.

| IC50 [1] | IC50 [2] | Compound |
| --- | --- | --- |
| 0.055 µM | 1.51 µM | CC(C)c1ccc([C@@H](NC(=O)[C@H]2C[C@@H]2F)c2ccc3cn[nH]c3c2)nc1F (single isomer, unassigned) [compound 3] |
| 0.156 µM | 2.79 µM | CC(C)c1ccc([C@@H](NC(=O)[C@H]2C[C@@H]2F)c2cccc(-c3ccn[nH]3)c2)nc1F (single isomer, unassigned) [compound 4] |
| 0.131 µM | 1.06 µM | CC(C)c1ccc([C@@H](NC(=O)[C@H]2C[C@@H]2F)c2cccc3[nH]c(=O)[nH]c23)cc1F (single isomer, unassigned) [compound 5] |
| 1.14 µM | 6.52 µM | O=C(N[C@@H](c1ccccc1)c1ccc(C2CC2)c(F)n1)[C@H]1C[C@@H]1F [compound 2, (1R,2S)-N-((S)-(5-cyclopropyl-6-fluoropyridin-2-yl)(phenyl)methyl)-2-fluorocyclopropane-1-carboxamide] |
